The text below walks through data of US20100286139A1, “AMINO PYRAZOLE COMPOUND” (ELI LILLY AND COMPANY, priority 2008, published 2010).

This assay deals with T1, JAK3 (Homo sapiens, UniProt P52333).
T1 construct: host or cells: NK-92 natural killer cells, IL-2-stimulated
T1 sequence (P52333 1-1124): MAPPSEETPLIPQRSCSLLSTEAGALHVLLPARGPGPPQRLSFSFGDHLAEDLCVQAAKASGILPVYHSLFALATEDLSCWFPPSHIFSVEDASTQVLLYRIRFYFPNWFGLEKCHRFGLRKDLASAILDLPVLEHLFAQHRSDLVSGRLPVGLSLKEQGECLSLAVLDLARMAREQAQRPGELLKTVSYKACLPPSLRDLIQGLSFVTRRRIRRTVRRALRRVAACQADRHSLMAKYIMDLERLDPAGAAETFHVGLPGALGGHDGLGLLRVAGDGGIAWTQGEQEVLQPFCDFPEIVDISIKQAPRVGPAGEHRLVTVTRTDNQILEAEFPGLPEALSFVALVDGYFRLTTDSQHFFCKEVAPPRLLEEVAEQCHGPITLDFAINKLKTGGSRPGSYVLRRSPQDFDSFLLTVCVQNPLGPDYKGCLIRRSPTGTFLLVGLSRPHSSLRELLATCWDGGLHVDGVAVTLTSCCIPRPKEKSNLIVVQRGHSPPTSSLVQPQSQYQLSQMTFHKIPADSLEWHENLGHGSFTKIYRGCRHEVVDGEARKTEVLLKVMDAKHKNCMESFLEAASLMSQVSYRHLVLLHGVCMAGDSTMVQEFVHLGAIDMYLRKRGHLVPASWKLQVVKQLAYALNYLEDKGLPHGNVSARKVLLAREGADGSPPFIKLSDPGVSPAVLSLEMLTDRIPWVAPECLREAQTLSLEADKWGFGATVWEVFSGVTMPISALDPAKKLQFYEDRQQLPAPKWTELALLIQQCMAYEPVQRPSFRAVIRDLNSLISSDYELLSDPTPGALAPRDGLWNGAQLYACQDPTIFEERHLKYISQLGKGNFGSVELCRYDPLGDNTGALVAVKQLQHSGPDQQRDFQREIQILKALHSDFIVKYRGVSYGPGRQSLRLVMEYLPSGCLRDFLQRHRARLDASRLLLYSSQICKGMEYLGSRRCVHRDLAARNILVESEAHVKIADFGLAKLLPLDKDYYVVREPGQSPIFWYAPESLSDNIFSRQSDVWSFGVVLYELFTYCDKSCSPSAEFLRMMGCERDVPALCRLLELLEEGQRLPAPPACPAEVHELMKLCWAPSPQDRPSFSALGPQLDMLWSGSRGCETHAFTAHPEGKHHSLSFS
As to the kind of experiment: JAK3 IL-2-NK-92/pSTAT5 cell-based assay (Cellomics ArrayScan HCS). An excerpt: IL-2 activates the JAK3 pathway in natural killer (NK) cells to drive the NK and CD8 lymphocyte proliferation. Therefore, IL-2 stimulated NK92/pSTAT5 cell-based assay enables the evaluation of the JAK3 cellular activity of JAK2 compounds in vitro.
NK-92 (natural killer) cells (ATCC, Manassas, Va.) are maintained in minimum essential medium (MEM) Alpha with 15% fetal bovine serum, 15% Horse Serum and 1× antibiotic/antimycotic (Invitrogen, Carlsbad, Calif.). The medium is supplemented with IL-2 (R&D systems, Minneapolis, Minn.) for a final concentration of 4 ng/mL. Cells are kept at 37° C. with 5% CO2. Cells are starved in serum free medium to remove endogenous growth factors. NK-92 cells are counted and collected to seed 2×10^7 cells per 96-well plate at a density of 2×10^5 cells per well. The cells are rinsed twice with unsupplemented MEM Alpha (MEM Alpha) before suspending cells at a final concentration of 8×10^5 cells/mL in MEM Alpha with 0.6% serum (0.3% FBS, 0.3% horse serum). […]
To perform the assay, serum-starved cells are collected and washed once with unsupplemented RPMI 1640 medium. […] An aliquot of 200 μL of 1 to 10 dilution of Mouse anti-pSTAT5 (pY694) Alexa Fluor 647® in fluorescence activated cell sorting (FACS) buffer is added to the cells. […] Mean fluorescent intensity data are collected and analyzed using Cellomics Arrayscan® VTi. […] The MSR is determined to be 2.06. […]

As for `Cc1cc(Nc2cc(CN3CCOCC3)c3nc(C)c(Cc4ccc(Cl)cc4F)n3n2)n[nH]1` [3-(4-Chloro-2-fluorobenzyl)-2-methyl-N-(5-methyl-1H-pyrazol-3-yl)-8-(morpholinomethyl)imidazo[1,2-b]pyridazin-6-amine], the “ratio of JAK3/JAK2 IC50” value (JAK3 IL2-NK92-pSTAT5 IC50 over JAK2 EPO-TF1/pSTAT5 IC50) was 28.5 fold. Moreover, where the note is “NK-92 cells, IL-2 0.5 ng/mL stimulated, n=4, read-out: relative IC50, inhibition of pSTAT5”, the IC50 came out at 940 nM.
